Results from patent US9617256B2 (priority 2007, dated 2017).
≈ marks a conversion by molar mass, not a printed value.

How the values were obtained:
[1] = system: AABA1060 (clinical isolate of Acinetobacter baumannii); assay: MIC broth microdilution, AABA1060; assay type: cell-based; settings: for MIC: Acinetobacter baumannii, read-out: MIC AABA1060
How it was run: (§1)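 Strains were grown overnight at 35° C. on Mueller-Hinton agar, suspended to 0.5 McFarland and diluted to a final 3×10^5–7×10^5 CFU/mL. They were then exposed to 2-fold serial drug dilutions in cation-adjusted Mueller-Hinton broth and incubated 18-24 hours at 35° C.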

AECO001 (ATCC25922) = assay: MIC broth microdilution, AECO001; assay type: cell-based, E. coli; settings: for MIC: Escherichia coli, ATCC25922, read-out: MIC AECO001
How it was run: as §1

[2] = system: ASAU001 (laboratory strain of S. aureus, ATCC29213); assay: MIC broth microdilution, ASAU001; assay type: cell-based; settings: for MIC: Staphylococcus aureus, ATCC29213, read-out: MIC ASAU001
How it was run: as §1

APAE001 (ATCC27853) = assay: MIC broth microdilution, APAE001; assay type: cell-based, P. aeruginosa; settings: for MIC: Pseudomonas aeruginosa, ATCC27853, read-out: MIC APAE001, APAE001 is ATCC27853
How it was run: as §1

[3] = system: APAE006 in the presence of 8 micrograms per milliliter of polymyxin B nonapeptide; assay type: cell-based, P. aeruginosa; settings: in the presence of 8 micrograms per milliliter of polymyxin B nonapeptide
How it was run: (§2)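 MICs come from broth microdilution in cation-adjusted Mueller-Hinton broth, final inoculum 3×10^5–7×10^5 CFU/mL, 18-24 hours at 35° C. Levofloxacin and QC strains served as assay controls.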

[4] = system: AECO063 (ATCC25922 bearing an acrAB mutation); assay: microbe, parasite or virus in culture; assay type: cell-based, E. coli; settings: for MIC: Escherichia coli, ATCC25922, read-out: MIC AECO063
How it was run: as §1

AECO001 HSA AGP = assay: MIC broth microdilution, AECO001 HSA AGP; assay type: cell-based, E. coli; settings: for MIC: Escherichia coli
Experimental: Bacterial isolates were cultivated from −70° C. frozen stocks by overnight passages at 35° C. in ambient air on Mueller-Hinton agar (Beckton Dickinson, Franklin Lakes, N.J.). Clinical isolates tested were obtained from various geographically diverse hospitals in the US and abroad (Focus Diagnostics, Herndon, Va. and JMI, North Liberty, Iowa). Quality control strains were from the American Type Culture Collection (ATCC; Rockville, Md.). Additional primary panel strains were generated using standard molecular biology techniques.
Minimum Inhibitory Concentrations (MICs) were determined by the broth microdilution method in accordance with the Clinical and Laboratory Standards Institute (CLSI) guidelines. In brief, organism suspensions were adjusted to a 0.5 McFarland standard to yield a final inoculum between 3×10^5 and 7×10^5 colony-forming units (CFU)/mL. Drug dilutions and inocula were made in sterile, cation adjusted Mueller-Hinton Broth (Beckton Dickinson). An inoculum volume of 100 μL was added to wells containing 100 μL of broth with 2-fold serial dilutions of drug. All inoculated microdilution trays were incubated in ambient air at 35° C. for 18-24 hours. […] Performance of the assay was monitored by the use of laboratory quality-control strains and levofloxacin, a compound with a defined MIC spectrum, in accordance with CLSI guidelines.
*AECO001 is ATCC25922, AECO063 is ATCC25922 bearing an acrAB mutation, APAE001 is ATCC27853, APAE006 is a strain of P. aeruginosa in which all efflux pumps are inactivated, APAE006+PMBN indicates MICs with the indicated strain in the presence of 8 micrograms per milliliter of polymyxin B nonapeptide, AABA1060 is a clinical isolate of Acinetobacter baumannii, ASAU001 is a laboratory strain of S. aureus (ATCC29213).

[5] = system: APAE006 (strain of P. aeruginosa in which all efflux pumps are inactivated); assay: microbe, parasite or virus in culture; assay type: cell-based; settings: for MIC: Pseudomonas aeruginosa, read-out: MIC APAE006, P. aeruginosa, all efflux pumps inactivated
How it was run: as §2

SMILES | MIC [1] | MIC (AECO001 (ATCC25922)) | MIC [2] | MIC (APAE001 (ATCC27853)) | MIC APAE006 + PMBN [3] | MIC [4] | MIC (AECO001 HSA AGP) | MIC [5] | MIC AABA1060 ([1]; clinical isolate of Acinetobacter baumannii) | MIC AECO001 (AECO001 (ATCC25922); AECO001 is ATCC25922) | MIC ASAU001 ([2]; S. aureus ATCC29213) | MIC APAE001 (APAE001 (ATCC27853); APAE001 is ATCC27853) | MIC AECO063 ([4]; ATCC25922 bearing an acrAB mutation) | MIC AECO001 HSA AGP (AECO001 HSA AGP) | MIC APAE006 ([5]; P. aeruginosa, all efflux pumps inactivated)
COC(C)[C@H](NC(=O)c1ccc(/C=C/C#Cc2ccc(CN3CCOCC3)cc2)cc1)C(=O)NO (stereo partly drawn) [Example 110-6] | 2 to 16 µg/mL (≈ 4.19 to 33.5 µM) | < 2 µg/mL | > 64 µg/mL | 2 to 16 µg/mL (≈ 4.19 to 33.5 µM) | A (MIC's of 2.0 μg/mL or less = A) | < 2 µg/mL | 2 to 16 µg/mL (≈ 4.19 to 33.5 µM) | < 2 µg/mL | – | – | – | – | – | – | –
C[C@@H](N)[C@H](NC(=O)c1ccc(/C=C/C#Cc2ccc(F)cc2)cc1)C(=O)NO [Example 114-2] | 2 to 16 µg/mL (≈ 5.24 to 41.9 µM) | < 2 µg/mL | 16 to 64 µg/mL (≈ 41.9 to 168 µM) | 2 to 16 µg/mL (≈ 5.24 to 41.9 µM) | A (MIC's of 2.0 μg/mL or less = A) | < 2 µg/mL | 2 to 16 µg/mL (≈ 5.24 to 41.9 µM) | < 2 µg/mL | – | – | – | – | – | – | –
C[C@@H](NC(=O)CNC1CC1)[C@H](NC(=O)c1ccc(C#C/C=C/c2ccccc2)cc1)C(=O)NO [Example 105-3] | – | – | – | – | A (MIC's of 2.0 μg/mL or less = A) | – | – | – | C (MIC's of greater than 16.0 μg/mL to 64.0 μg/mL = C) | C (MIC's of greater than 16.0 μg/mL to 64.0 μg/mL = C) | C (MIC's of greater than 16.0 μg/mL to 64.0 μg/mL = C) | C (MIC's of greater than 16.0 μg/mL to 64.0 μg/mL = C) | B (MIC's of greater than 2.0 μg/mL to 16.0 μg/mL = B) | C (MIC's of greater than 16.0 μg/mL to 64.0 μg/mL = C) | B (MIC's of greater than 2.0 μg/mL to 16.0 μg/mL = B)
O=C(N[C@H](C(=O)NO)c1ccsc1)c1ccc(C#Cc2ccc(CN3CCOCC3)cc2)cc1 [Example 67-8] | 2 to 16 µg/mL (≈ 4.21 to 33.6 µM) | < 2 µg/mL | > 64 µg/mL | 2 to 16 µg/mL (≈ 4.21 to 33.6 µM) | A (MIC's of 2.0 μg/mL or less = A) | < 2 µg/mL | 2 to 16 µg/mL (≈ 4.21 to 33.6 µM) | < 2 µg/mL | – | – | – | – | – | – | –
C[C@@H](O)[C@H](NC(=O)c1ccc(/C=C/C#Cc2ccc(CNC3CC3)cc2)cc1)C(=O)NO [Example 113-3] | 2 to 16 µg/mL (≈ 4.61 to 36.9 µM) | < 2 µg/mL | > 64 µg/mL | 2 to 16 µg/mL (≈ 4.61 to 36.9 µM) | A (MIC's of 2.0 μg/mL or less = A) | < 2 µg/mL | 2 to 16 µg/mL (≈ 4.61 to 36.9 µM) | < 2 µg/mL | – | – | – | – | – | – | –
C[C@@H](N)[C@H](NC(=O)c1ccc(C#Cc2ccc(CNCC3CCCO3)cc2)cc1)C(=O)NO (stereo partly drawn) [Example 118-5] | 16 to 64 µg/mL (≈ 35.5 to 142 µM) | 2 to 16 µg/mL (≈ 4.44 to 35.5 µM) | > 64 µg/mL | < 2 µg/mL | A (MIC's of 2.0 μg/mL or less = A) | < 2 µg/mL | 2 to 16 µg/mL (≈ 4.44 to 35.5 µM) | < 2 µg/mL | – | – | – | – | – | – | –
CO[C@H](C)[C@H](NC(=O)c1ccc(/C=C/C#Cc2ccc(CO)cc2)cc1)C(=O)NO [Example 112-4] | < 2 µg/mL | < 2 µg/mL | 16 to 64 µg/mL (≈ 39.2 to 157 µM) | < 2 µg/mL | A (MIC's of 2.0 μg/mL or less = A) | < 2 µg/mL | 2 to 16 µg/mL (≈ 4.9 to 39.2 µM) | < 2 µg/mL | – | – | – | – | – | – | –
C[C@@H](N)[C@H](NC(=O)c1ccc(C#Cc2ccc(CCN)cc2)cc1)C(=O)NO [Example 137-4] | > 64 µg/mL | > 64 µg/mL | > 64 µg/mL | > 64 µg/mL | C (MIC's of greater than 16.0 μg/mL to 64.0 μg/mL = C) | 16 to 64 µg/mL (≈ 42.1 to 168 µM) | > 64 µg/mL | 16 to 64 µg/mL (≈ 42.1 to 168 µM) | – | – | – | – | – | – | –
CNC(=O)[C@@H](NC(=O)c1ccc(C#Cc2ccc(CN3CCOCC3)cc2)cc1)[C@@H](C)N [Example 117-1, N-((1S,2R)-2-Amino-1-methylcarbamoyl-propyl)-4-(4-morpholin-4-ylmethyl-phenylethynyl)-benzamide] | > 64 µg/mL | > 64 µg/mL | > 64 µg/mL | > 64 µg/mL | D (MIC's of greater than 64.0 μg/mL = D) | > 64 µg/mL | > 64 µg/mL | > 64 µg/mL | – | – | – | – | – | – | –
C[C@@H](N)[C@H](NC(=O)c1ccc(C#CC#Cc2ccc(CNC3CC3)cc2)cc1)C(=O)NO [Example 86-3] | 2 to 16 µg/mL (≈ 4.65 to 37.2 µM) | < 2 µg/mL | 16 to 64 µg/mL (≈ 37.2 to 149 µM) | < 2 µg/mL | A (MIC's of 2.0 μg/mL or less = A) | < 2 µg/mL | < 2 µg/mL | < 2 µg/mL | – | – | – | – | – | – | –
C[C@@H](N)[C@H](NC(=O)c1ccc(/C=C/C#Cc2ccc(OC(F)(F)F)cc2)cc1)C(=O)NO [Example 114-7] | 2 to 16 µg/mL (≈ 4.47 to 35.8 µM) | 2 to 16 µg/mL (≈ 4.47 to 35.8 µM) | 2 to 16 µg/mL (≈ 4.47 to 35.8 µM) | 2 to 16 µg/mL (≈ 4.47 to 35.8 µM) | A (MIC's of 2.0 μg/mL or less = A) | < 2 µg/mL | 2 to 16 µg/mL (≈ 4.47 to 35.8 µM) | 2 to 16 µg/mL (≈ 4.47 to 35.8 µM) | – | – | – | – | – | – | –
NC[C@H](NC(=O)c1ccc(C#C/C=C/c2ccc(CN3CCOCC3)cc2)cc1)C(=O)NO [Example 98-1, N—((S)-2-amino-1-hydroxycarbamoyl-ethyl)-4-[(E)-4-(4-morpholin-4-ylmethyl-phenyl)-but-3-en-1-ynyl]-benzamide] | 16 to 64 µg/mL (≈ 35.7 to 143 µM) | < 2 µg/mL | 16 to 64 µg/mL (≈ 35.7 to 143 µM) | < 2 µg/mL | A (MIC's of 2.0 μg/mL or less = A) | < 2 µg/mL | < 2 µg/mL | < 2 µg/mL | – | – | – | – | – | – | –
NC[C@H](NC(=O)c1ccc(C#C/C=C/c2ccccc2)cc1)C(=O)NO [Example 104-2] | 16 to 64 µg/mL (≈ 45.8 to 183 µM) | < 2 µg/mL | 16 to 64 µg/mL (≈ 45.8 to 183 µM) | 2 to 16 µg/mL (≈ 5.72 to 45.8 µM) | A (MIC's of 2.0 μg/mL or less = A) | < 2 µg/mL | 2 to 16 µg/mL (≈ 5.72 to 45.8 µM) | < 2 µg/mL | – | – | – | – | – | – | –
C[C@@H](N)[C@H](NC(=O)c1ccc(C#Cc2ccc(CNS(C)(=O)=O)cc2)cc1)C(=O)NO [Example 131-2] | 16 to 64 µg/mL (≈ 36 to 144 µM) | 2 to 16 µg/mL (≈ 4.5 to 36 µM) | > 64 µg/mL | < 2 µg/mL | A (MIC's of 2.0 μg/mL or less = A) | < 2 µg/mL | 16 to 64 µg/mL (≈ 36 to 144 µM) | < 2 µg/mL | – | – | – | – | – | – | –
C[C@@H](O)[C@H](NC(=O)c1ccc(C=C(F)C#Cc2ccc(CN3CCOCC3)cc2)cc1)C(=O)NO [Example 109-1, 4-(2-fluoro-4-(4-(morpholinomethyl)phenyl)but-1-en-3-ynyl)-N-((2S,3R)-3-hydroxy-1-(hydroxyamino)-1-oxobutan-2-yl)benzamide] | 2 to 16 µg/mL (≈ 4.15 to 33.2 µM) | < 2 µg/mL | > 64 µg/mL | 2 to 16 µg/mL (≈ 4.15 to 33.2 µM) | A (MIC's of 2.0 μg/mL or less = A) | < 2 µg/mL | 2 to 16 µg/mL (≈ 4.15 to 33.2 µM) | < 2 µg/mL | – | – | – | – | – | – | –
